Laboratory results taken from US20250296934A1, “AZEPINOINDOLES AND METHODS OF PREPARATION THEREOF” (priority 2022, published 2025).
Read-outs that look alike come from different tables or passages of the source.

What was measured:
5-HT2B [1] = target: T1, 5-HT2B (Homo sapiens, UniProt P41595); experiment: 5-HT2B Gq dissociation BRET functional assay; assay type: cell-based; parameters: expressed in transfected cells; host or cells: HEK293T; details: for 5-HT2B BRET Eff: normalized to % 5-HT stimulation
Target sequence in this assay (P41595 whole entry): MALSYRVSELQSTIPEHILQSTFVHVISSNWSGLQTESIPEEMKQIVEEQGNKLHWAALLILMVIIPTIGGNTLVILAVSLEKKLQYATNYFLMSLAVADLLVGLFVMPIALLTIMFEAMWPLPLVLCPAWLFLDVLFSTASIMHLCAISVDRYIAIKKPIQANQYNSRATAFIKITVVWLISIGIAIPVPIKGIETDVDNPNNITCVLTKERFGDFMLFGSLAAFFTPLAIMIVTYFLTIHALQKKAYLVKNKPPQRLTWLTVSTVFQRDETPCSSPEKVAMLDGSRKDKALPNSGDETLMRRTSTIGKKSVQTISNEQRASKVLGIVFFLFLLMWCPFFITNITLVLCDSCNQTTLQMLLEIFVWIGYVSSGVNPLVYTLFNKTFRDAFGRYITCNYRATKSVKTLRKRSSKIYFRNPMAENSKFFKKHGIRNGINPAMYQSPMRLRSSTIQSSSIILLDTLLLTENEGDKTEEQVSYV

5-HT2A [2] = target: T2, 5-HT2A (Homo sapiens, UniProt P28223); experiment: 5-HT2A Gq dissociation BRET functional assay; assay type: cell-based; parameters: expressed in transfected cells; host or cells: HEK293T; details: for 5-HT2A BRET Eff: normalized to % 5-HT stimulation
T2 sequence (P28223 whole entry): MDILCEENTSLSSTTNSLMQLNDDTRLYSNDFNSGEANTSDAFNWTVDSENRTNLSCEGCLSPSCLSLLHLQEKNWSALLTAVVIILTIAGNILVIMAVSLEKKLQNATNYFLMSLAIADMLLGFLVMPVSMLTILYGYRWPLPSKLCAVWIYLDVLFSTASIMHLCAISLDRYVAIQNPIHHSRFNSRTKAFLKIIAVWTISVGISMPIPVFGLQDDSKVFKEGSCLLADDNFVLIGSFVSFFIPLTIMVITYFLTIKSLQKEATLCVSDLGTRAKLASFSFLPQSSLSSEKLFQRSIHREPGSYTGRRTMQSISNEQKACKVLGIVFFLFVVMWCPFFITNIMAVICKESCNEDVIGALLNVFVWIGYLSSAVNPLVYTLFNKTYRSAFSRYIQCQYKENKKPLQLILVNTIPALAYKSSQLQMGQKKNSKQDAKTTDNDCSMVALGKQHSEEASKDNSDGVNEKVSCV

5-HT2C = target: T3, 5-HT2C (Homo sapiens, UniProt P28335); experiment: cell-based; assay type: cell-based; parameters: expressed in transfected cells; host or cells: HEK293T; details: for EC50: Gq dissociation BRET, HEK293T
T3 sequence (P28335 33-458): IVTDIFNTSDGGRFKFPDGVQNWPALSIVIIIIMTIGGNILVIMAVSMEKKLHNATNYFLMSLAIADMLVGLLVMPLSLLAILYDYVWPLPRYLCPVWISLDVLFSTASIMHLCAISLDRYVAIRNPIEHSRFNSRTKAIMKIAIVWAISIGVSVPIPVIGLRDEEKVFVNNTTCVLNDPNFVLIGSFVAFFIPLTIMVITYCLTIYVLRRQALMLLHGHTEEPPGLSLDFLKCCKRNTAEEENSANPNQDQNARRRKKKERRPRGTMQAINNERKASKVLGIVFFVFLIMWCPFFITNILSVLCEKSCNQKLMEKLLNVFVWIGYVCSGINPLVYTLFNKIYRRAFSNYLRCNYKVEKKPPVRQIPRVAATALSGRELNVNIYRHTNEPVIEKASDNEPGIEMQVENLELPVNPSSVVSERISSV

hepatocyte [3] = experiment: In vitro hepatocyte clearance, human; assay type: in vitro ADME; details: Human
Experimental: (§1) Additional experimentation was performed on compounds 1, W5, and A93. Table 6a, 6b and 6c summarize, among other things, the anticipated hepatic clearance of compounds 1, W5 and A93 respectively, in various species, as specified in Table 6a, 6b and 6c and as determined by calculating the in vitro hepatocyte clearance over time and scaling such rate with such species' hepatocyte count and the anticipated liver blood flow rate in such species.

[4] = In vitro hepatocyte clearance, human; assay type: in vitro ADME; details: Human hepatocytes; for half-life: read-out: In vitro T1/2; for CLint scaled: read-out: Scale-up Clint
Experimental: as §1

hepatocyte [5] = experiment: In vitro hepatocyte clearance, mouse; assay type: in vitro ADME; details: Mouse
Experimental: as §1

[6] = In vitro hepatocyte clearance, mouse; assay type: in vitro ADME; details: Mouse hepatocytes; for half-life: read-out: In vitro T1/2; for CLint scaled: read-out: Scale-up Clint
Experimental: as §1

mice = experiment: Head Twitch Response (HTR) in mice; assay type: in vivo; details: Mus musculus, 1 h, measured over a 60 minute interval
Experimental: Head Twitch Response (HTR) was assessed using a head-mounted neodymium magnet and a magnetometer detection coil, as described in Halberstadt et al., Psychopharmacology (Berl.), 2013, 227 (4): 727-739. Table 8 below summarizes the ED50 in head twitch (as measured over a 60 minute interval) in mice as a result of Compound 1 as compared to psilocybin.

5-HT5A = 5-HT5A (Homo sapiens, UniProt P47898); experiment: 5-HT receptor activity (Table 3), 5-HT5A; assay type: cell-based
Sequence of 5-HT5A (P47898 whole entry, species assumed): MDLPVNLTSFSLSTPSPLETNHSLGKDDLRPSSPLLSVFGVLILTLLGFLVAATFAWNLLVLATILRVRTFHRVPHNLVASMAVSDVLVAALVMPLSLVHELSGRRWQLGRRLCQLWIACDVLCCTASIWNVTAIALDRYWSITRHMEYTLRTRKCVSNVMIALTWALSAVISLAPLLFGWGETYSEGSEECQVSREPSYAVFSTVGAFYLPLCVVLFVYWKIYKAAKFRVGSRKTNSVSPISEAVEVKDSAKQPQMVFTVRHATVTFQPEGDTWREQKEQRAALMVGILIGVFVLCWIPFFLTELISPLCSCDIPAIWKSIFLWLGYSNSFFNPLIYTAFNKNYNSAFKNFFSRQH

5-HT1F = target: T4, 5-HT1F (Homo sapiens, UniProt P30939); experiment: 5-HT receptor activity (Table 3), 5-HT1F; assay type: cell-based
T4 sequence (P30939 1-366): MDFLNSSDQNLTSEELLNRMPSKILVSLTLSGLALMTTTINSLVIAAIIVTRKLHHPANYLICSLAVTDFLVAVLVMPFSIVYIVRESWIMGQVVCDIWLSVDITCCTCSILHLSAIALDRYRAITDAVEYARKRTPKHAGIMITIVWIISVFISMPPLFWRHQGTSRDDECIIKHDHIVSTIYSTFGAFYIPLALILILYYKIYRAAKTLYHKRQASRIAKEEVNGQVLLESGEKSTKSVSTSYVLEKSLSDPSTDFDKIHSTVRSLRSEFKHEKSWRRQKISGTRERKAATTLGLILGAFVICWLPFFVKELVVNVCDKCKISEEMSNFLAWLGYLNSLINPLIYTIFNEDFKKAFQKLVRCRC

5-HT4 = 5-HT4 (Homo sapiens, UniProt Q13639); experiment: 5-HT receptor activity (Table 3), 5-HT4; assay type: cell-based
Sequence of 5-HT4 (Q13639 whole entry, species assumed): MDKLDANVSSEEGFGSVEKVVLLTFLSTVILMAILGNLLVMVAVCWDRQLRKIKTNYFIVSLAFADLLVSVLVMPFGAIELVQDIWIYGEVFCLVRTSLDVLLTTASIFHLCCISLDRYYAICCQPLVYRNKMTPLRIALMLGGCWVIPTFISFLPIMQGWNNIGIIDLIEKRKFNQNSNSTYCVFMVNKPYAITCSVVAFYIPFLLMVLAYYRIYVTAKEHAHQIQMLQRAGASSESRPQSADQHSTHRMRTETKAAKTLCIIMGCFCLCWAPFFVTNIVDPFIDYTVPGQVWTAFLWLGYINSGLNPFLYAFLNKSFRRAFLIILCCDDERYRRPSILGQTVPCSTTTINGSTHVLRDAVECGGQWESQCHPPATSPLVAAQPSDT

5-HT7 = 5-HT7 (Homo sapiens, UniProt P34969); experiment: 5-HT receptor activity (Table 3), 5-HT7; assay type: cell-based
Sequence of 5-HT7 (P34969 whole entry, species assumed): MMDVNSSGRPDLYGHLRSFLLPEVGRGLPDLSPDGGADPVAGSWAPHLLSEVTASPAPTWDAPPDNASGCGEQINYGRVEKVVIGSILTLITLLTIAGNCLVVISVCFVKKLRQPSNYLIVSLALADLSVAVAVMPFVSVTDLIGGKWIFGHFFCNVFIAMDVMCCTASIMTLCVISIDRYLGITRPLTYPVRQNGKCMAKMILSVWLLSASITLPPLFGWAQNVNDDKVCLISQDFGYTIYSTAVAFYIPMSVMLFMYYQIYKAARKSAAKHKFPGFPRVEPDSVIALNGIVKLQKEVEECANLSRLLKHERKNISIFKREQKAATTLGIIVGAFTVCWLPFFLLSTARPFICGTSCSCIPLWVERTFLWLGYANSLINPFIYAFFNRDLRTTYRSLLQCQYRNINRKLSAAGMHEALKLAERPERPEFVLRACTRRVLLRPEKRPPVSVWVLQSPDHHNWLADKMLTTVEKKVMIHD

5-HT1D = 5-HT1D (Homo sapiens, UniProt P28221); experiment: 5-HT receptor activity (Table 3), 5-HT1D; assay type: cell-based
Sequence of 5-HT1D (P28221 whole entry, species assumed): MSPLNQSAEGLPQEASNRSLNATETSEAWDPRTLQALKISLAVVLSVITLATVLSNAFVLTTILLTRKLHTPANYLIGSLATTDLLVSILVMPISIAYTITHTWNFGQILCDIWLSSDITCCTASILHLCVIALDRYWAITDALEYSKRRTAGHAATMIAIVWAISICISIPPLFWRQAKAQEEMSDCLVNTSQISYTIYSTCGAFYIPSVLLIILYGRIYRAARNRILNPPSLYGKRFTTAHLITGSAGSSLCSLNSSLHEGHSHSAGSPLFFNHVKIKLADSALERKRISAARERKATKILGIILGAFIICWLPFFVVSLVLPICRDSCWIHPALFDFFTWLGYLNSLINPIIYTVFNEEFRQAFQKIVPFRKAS

5-HT2A [7] = target: T2, 5-HT2A; experiment: 5-HT receptor activity (Table 3), 5-HT2A; assay type: cell-based; details: 5-HT2A, Table 3
5-HT6 = 5-HT6 (Homo sapiens, UniProt P50406); experiment: 5-HT receptor activity (Table 3), 5-HT6; assay type: cell-based
Sequence of 5-HT6 (P50406 whole entry, species assumed): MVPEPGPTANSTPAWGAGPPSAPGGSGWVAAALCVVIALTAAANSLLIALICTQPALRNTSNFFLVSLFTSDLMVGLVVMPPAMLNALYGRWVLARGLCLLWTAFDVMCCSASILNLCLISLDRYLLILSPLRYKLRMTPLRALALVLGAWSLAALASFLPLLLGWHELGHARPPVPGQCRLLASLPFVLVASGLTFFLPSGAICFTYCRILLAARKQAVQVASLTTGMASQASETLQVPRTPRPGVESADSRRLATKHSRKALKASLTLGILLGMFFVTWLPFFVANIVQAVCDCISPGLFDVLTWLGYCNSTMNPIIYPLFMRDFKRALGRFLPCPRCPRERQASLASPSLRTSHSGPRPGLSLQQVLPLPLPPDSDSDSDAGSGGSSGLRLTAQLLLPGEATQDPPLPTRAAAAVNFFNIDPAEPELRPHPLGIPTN

5-HT1A = target: T5, 5-HT1A (Homo sapiens, UniProt P08908); experiment: 5-HT receptor activity (Table 3), 5-HT1A; assay type: cell-based
T5 sequence (P08908 1-422): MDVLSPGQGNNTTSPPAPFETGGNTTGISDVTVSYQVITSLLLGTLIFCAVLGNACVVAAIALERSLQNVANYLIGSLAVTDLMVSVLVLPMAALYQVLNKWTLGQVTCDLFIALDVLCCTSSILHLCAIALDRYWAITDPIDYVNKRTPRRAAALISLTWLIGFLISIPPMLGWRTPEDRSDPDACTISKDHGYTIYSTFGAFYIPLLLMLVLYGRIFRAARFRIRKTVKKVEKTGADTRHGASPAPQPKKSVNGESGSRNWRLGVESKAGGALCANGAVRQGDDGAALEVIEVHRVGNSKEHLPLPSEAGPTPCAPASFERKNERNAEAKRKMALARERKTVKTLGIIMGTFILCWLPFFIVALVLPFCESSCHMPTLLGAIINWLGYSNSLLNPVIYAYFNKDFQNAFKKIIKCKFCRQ

5-HT1B = 5-HT1B (Homo sapiens, UniProt P28222); experiment: 5-HT receptor activity (Table 3), 5-HT1B; assay type: cell-based
Sequence of 5-HT1B (P28222 whole entry, species assumed): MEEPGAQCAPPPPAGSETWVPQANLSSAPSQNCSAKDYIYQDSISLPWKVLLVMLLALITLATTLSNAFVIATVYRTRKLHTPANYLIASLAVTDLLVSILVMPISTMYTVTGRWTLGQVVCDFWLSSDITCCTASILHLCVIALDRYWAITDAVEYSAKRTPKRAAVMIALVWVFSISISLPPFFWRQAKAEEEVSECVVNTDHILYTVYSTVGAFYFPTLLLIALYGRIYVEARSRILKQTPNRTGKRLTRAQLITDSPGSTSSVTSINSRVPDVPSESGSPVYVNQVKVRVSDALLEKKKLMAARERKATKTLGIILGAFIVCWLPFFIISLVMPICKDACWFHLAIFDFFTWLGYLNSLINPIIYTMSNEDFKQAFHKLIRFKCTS

5-HT1E = 5-HT1E (Homo sapiens, UniProt P28566); experiment: 5-HT receptor activity (Table 3), 5-HT1E; assay type: cell-based
Sequence of 5-HT1E (P28566 whole entry, species assumed): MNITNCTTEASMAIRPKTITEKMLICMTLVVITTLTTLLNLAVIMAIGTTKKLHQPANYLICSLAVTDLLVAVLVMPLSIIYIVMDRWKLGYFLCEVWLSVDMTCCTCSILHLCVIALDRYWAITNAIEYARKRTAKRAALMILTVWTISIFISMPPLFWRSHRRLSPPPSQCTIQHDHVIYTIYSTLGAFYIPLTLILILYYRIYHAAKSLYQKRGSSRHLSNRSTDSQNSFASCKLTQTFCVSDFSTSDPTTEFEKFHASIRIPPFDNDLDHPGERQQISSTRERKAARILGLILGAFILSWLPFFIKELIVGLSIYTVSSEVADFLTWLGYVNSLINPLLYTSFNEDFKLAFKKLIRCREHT

5-HT2B [8] = target: T1, 5-HT2B; experiment: 5-HT receptor activity (Table 3), 5-HT2B; assay type: cell-based; details: 5-HT2B, Table 3
Target sequence in this assay (P41595 whole entry, species assumed): as the sequence (P41595 whole entry) above

[9] = normalized to % 5-HT stimulation

Compound | 5-HT2B BRET Eff (5-HT2B [1]) [%] | 5-HT2A BRET Eff (5-HT2A [2]) [%] | 5-HT2C BRET Eff (5-HT2C; [9]) [%] | EC50 (5-HT2B [1]) [nM] | EC50 (5-HT2A [2]) [nM] | EC50 (5-HT2C) [nM] | other results
NCCc1c[nH]c2cccc(O)c12 [4-hydroxytryptamine, reference compound] | 100 | 100 | – | – | – | – | 5-HT2C BRET Eff (5-HT2C): 99%
Cc1cccc2c(CCN(C)C)c[nH]c12 [7,N,N-TMT, reference compound] | 36 | 80 | 79 | – | – | – | EC50 (5-HT2B [1]; Gq dissociation BRET, HEK293T, read-out: 5-HT2B BRET EC50): 74.3 nM
Cc1ccc(O)c2c3c([nH]c12)CCN(C)CC3 [Cpd #14 (W5)] | 25 | 89 | 87 | 22.7 | 3.9 | 1.3 | Hepatic Extraction Ratio (E) (hepatocyte [3]): 0.13; Predicted hepatic CL (hepatocyte [3]): 2.74 mL/min/kg; hepatocyte CLint [4]: 1.26 µL/min/1e6 cells; half-life [4]: 20.9 h; CLint scaled [4]: 3.22 mL/min/kg; Hepatic Extraction Ratio (E) (hepatocyte [5]): 0.84; Predicted hepatic CL (hepatocyte [5]): 75.80 mL/min/kg; hepatocyte CLint [6]: 40.7 µL/min/1e6 cells; half-life [6]: 0.568 h; CLint scaled [6]: 480 mL/min/kg
Cc1ccc(O)c2c3c([nH]c12)CCN(Cc1ccccc1O)CC3 [Cpd #18 (A90)] | −2.6 | 76 | 93 | 2.7 | 31 | 24 | –
Cc1cc(F)c(O)c2c3c([nH]c12)CCNCC3 [Cpd #27 (A92)] | 77 | 97 | 101 | 14 | 6.2 | 2.8 | –
Cc1ccc(O)c2c3c([nH]c12)C(C)CNCC3 (centres unmarked) [Cpd #45 (W8)] | 54 | 98 | 99 | 1.3 | 6.4 | 1.2 | –
CN1CCc2c(n(C)c3cccc(O)c23)CC1 [Cpd #64 (A96)] | 46 | 87 | 79 | 90.9 | 15.3 | 6.7 | –
Cn1c2c(c3c(O)cccc31)CCNCC2 [Cpd #65 (A95)] | 70 | 96 | 93 | 40.3 | 5.9 | 2.8 | –
CN1CCc2[nH]c3cccc(O)c3c2CC1 [Cpd #66 (A94)] | 28 | 91 | 89 | 47.9 | 8.1 | 18.8 | –
Oc1cccc2[nH]c3c(c12)CCNCC3 [Cpd #67 (A93)] | 57 | 97 | 94 | 55.7 | 4 | 5.7 | Hepatic Extraction Ratio (E) (hepatocyte [3]): <0.25; Predicted hepatic CL (hepatocyte [3]): <5.17 mL/min/kg; hepatocyte CLint [4]: < 2.71 µL/min/1e6 cells; half-life [4]: > 8.53 h; CLint scaled [4]: < 6.89 mL/min/kg; Hepatic Extraction Ratio (E) (hepatocyte [5]): <0.26; Predicted hepatic CL (hepatocyte [5]): <23.60 mL/min/kg; hepatocyte CLint [6]: < 2.71 µL/min/1e6 cells; half-life [6]: > 8.53 h; CLint scaled [6]: < 32 mL/min/kg
Cc1ccc(O)c2[nH]c3c(c12)CCNCC3 [Pharm-159] | 95 | 96 | 99 | 3 | 3.5 | 0.17 | –
CN(C)CCc1c[nH]c2cccc(OP(=O)(O)O)c12 [Psilocybin, psilocybin, reference compound] | – | – | – | – | – | – | ED50 (mice): 0.38 mg/kg
CN(C)CCc1c[nH]c2cccc(O)c12 [psilocin, reference compound] | 63 | 82 | – | – | – | – | Eff (5-HT5A): 48%; Eff (5-HT1F): 93%; Eff (5-HT4): 81%; Eff (5-HT7): 86%; Eff (5-HT1D): 102%; Eff (5-HT2A [7]): 80%; Eff (5-HT6): 74%; Eff (5-HT1A): 93%; Eff (5-HT1B): 94%; Eff (5-HT1E): 90%; Eff (5-HT2B [8]): 32%
